From article PMC4406947, “CALM Regulates Clathrin-Coated Vesicle Size and Maturation by Directly Sensing and Driving Membrane Curvature” (Developmental Cell, 2015) come the findings set out here.

A word on the Kd: it is the equilibrium constant for the complex coming apart.

Test [1] has as its target T1, CALM ANTH (CALM ANTH-WT).
T1 construct: gene PICALM; recombinant N-terminal ANTH domain including AH0, first 289 residues; construct details in supplement; clone could be rat Picalm (earlier ANTH constructs of this group)
Kind of test: liposome-based SPR (BIAcore […]). As to conditions: PtdIns4,5P2-containing liposomes, not free lipid; 170 mM salt. It counts as binding, Homo sapiens. For orientation: In SPR one partner is held on a chip, and binding of the other changes the refractive index at the surface.

The target in test [2] is T2, CALM ANTH(ΔH0) (Homo sapiens, UniProt Q13492).
T2 construct: gene PICALM; recombinant ANTH domain lacking the N-terminal amphipathic helix AH0 (residues 1-18); construct details in supplement; clone could be rat Picalm
T2 sequence (Q13492 19-289): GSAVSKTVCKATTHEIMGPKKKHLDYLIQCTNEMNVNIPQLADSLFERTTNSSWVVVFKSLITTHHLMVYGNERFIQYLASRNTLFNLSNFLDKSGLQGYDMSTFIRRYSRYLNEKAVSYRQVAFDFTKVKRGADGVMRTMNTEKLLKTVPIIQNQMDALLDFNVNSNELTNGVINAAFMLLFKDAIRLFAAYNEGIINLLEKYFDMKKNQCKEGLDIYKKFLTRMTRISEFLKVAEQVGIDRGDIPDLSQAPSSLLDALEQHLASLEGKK
Kind of test: liposome-based SPR (BIAcore […]). In kind it is binding. The settings on record: PtdIns4,5P2-containing liposomes, not free lipid; 170 mM salt.

As to PtdIns4,5P2, the results for the Kd in test [1] and in test [2] were 1.5 µM and 11.5 ± 1.1 µM, respectively.
